Where “and” joins values, the source holds several entries; their conditions need not be identical. Identical values can stand only once.
Assays:
BV-2 microglia cells = assay: MTT viability of BV-2 microglia cells; format: cell-based, murine
[1] = Ex vivo metabolization in serum, tissue and faeces homogenates; format: in vitro ADME, ICR-CD-1 mice; details: UPLC-UV/MS; for T1/2 / Metabolites: 37 °C; for T1/2: first order kinetics
Method: Peptide solution (0.1 mg/mL) was incubated with serum, brain, liver, kidney, colon or faeces homogenate at 37 °C. After 0, 5, 10, 30 and 60 min, aliquots were taken for UPLC-UV/MS analysis. Preparation of the tissue homogenates and UPLC-UV/MS parameters are given in supplementary information (Supplementary methods S3-S4). The half-live was calculated using the following equation:4 T1/2=-ln(2)/Slope where the slope is defined by linear regression assuming first order kinetics.
Supplementary method S3: Tissue homogenate preparation
Preparation of Krebs-Henseleit buffer (pH 7.4) (KH-buffer)
The powdered medium was dissolved in 900 mL water while stirring. To this solution, 0.3790 g CaCl2×2H2O and 2.098 g NaHCO3 was subsequently added while stirring. NaOH or HCl was used to adjust to pH 7.4. This solution was then further diluted to 1000 mL using ultrapure […]
Preparation of tissue homogenates
- The liver (n = 1), kidneys (n = 6), brains (n = 3), colons (n = 4) and faeces (0.196 g) of ICR-CD-1 mice were collected.
- After cleaning and rinsing the tissues using ice-cold KH buffer, the tissues were cut in little pieces and transferred into a 50 mL tube to which 36 mL ice-cold KH buffer was added.
- The tissues were then homogenized with at tissue homogenizer.
- After the larger particles were allowed to settle for about 30 minutes at 5°C, approximately 25 mL of the middle layer was transferred into a 50 mL Falcon tube using a plastic pipette.
- After shaking the homogenates, the homogenates were dispensed into 2 mL Eppendorf tubes, and stored at -35°C until use.
- The protein content of the homogenates were determined using the Pierce Modified Lowry […]
- Just before use, the homogenates were diluted to a protein concentration of 0.6 mg/mL (i.e.
300 µg / 500 µL) with KH buffer.
- Into a 1.5 ml Protein LoBind tube, 900 µl of serum/tissue extract (500 µl of homogenate/serum and 400 µl of KH buffer, pH 7.4) was transferred.
- After temperature-equilibration at 37°C for 15 min while shaking at 750 rpm, 100 µl of peptide solution (0.1 mg/mL) was added followed by continued incubation at 37°C (while shaking), with […] aliquots taken after 0, 5, 10, 30 and 60 minutes.
- The aliquots were immediately transferred into 500 µl Protein LoBind Eppendorf tubes containing 100 µl of 1% V/V trifluoroacetic acid solution in water, heated for 5 minutes at 95°C, and cooled for 30 minutes in an ice-bath.
- The samples were then centrifuged at 16,000 g for 5 minutes at 5°C.
- The supernatants was then analyzed by UPLC-UV/MS.
Supplementary method S4: UPLC-UV/MS parameters ex vivo metabolization
The analytical parameters of the UPLC-UV/MS method for the ex vivo metabolization are given […]
Table 3: Analytical parameters of UPLC method […]
Needle wash H2O/ACN/DMSO (45/45/10), post injection (6 s)
Seal wash Methanol/H2O (10/90)

SH-SY5Y neuroblast cells = assay: MTT assay on SH-SY5Y neuroblast cells; format: cell-based; details: n = 6
Method: SH-SY5Y neuroblast cells (Sigma-Aldrich, Diegem, Belgium) were grown in F12:MEM (50/50 v/v) medium supplemented with 15% FBS, 1% non-essential amino acids (NEAA), 2 mM L-Glutamine and 1% penicillin/streptomycin solution (Life Technologies, Belgium) in an incubator set at 37 °C and 5% CO2. When confluent, cells were detached using 0.25% Trypsin–EDTA.
SH-SY5Y cells were seeded at a density of 5 × 10^4 cells/well in a 96-well plate and incubated for 24 h. Next, medium was removed and replaced by 200 µL conditioned medium of BV-2 cells which were treated for 20 h with PapRIV. After 24 h incubation, 20 µL MTT reagent (12 mM) was added and incubated for 3 h. Finally, the medium was removed and replaced by 150 µL DMSO and measured at 570 nm with a microplate reader (Thermofisher, Waltham, USA).

[2] = Brain-to-blood transport (efflux); format: in vivo, ICR-CD-1 mice; details: kout not significantly different from zero
Method: Briefly, 0.1 µmol of the lyophilized peptide was dissolved in 100 µL of phosphate buffer (pH 7.4, 25 mM). A Iodo-Gen coated tube (Thermo Scientific, Merelbeke, Belgium) was first of all rinsed with 1 mL of phosphate buffer. Subsequently, 50 µL of sodium iodide solution (1.1 µmol/mL) and 1 mCi of Na^125I solution (Perking Elmer, Zaventem, Belgium) were transferred into this Iodo-Gen coated tube. The oxidation reaction was allowed to proceed for six minutes at room temperature, after which the iodonium solution was transferred to 50 µL of peptide solution (1 mM). The iodination reaction of the peptide was allowed to proceed for another six minutes at room temperature. […]
We quantified the amount of peptide exported out of the brain as previously described. […] Then, the whole brain was collected, weighed and measured in a gamma counter for 5 min. Fifty µL of serum, which was obtained by centrifuging the collected blood at 10,000g during 15 min at 21 °C, and the background was also measured in a gamma counter. The efflux half-life was calculated from the linear regression of the natural logarithm of the residual radioactivity in brain versus time as follows:3 t1/2=ln(2)/kout where kout is defined as the efflux rate constant calculated as the negative value of the slope of the linear regression, applying first order kinetics.

For “SDLPFEH [PapRIV, heptapeptide (SDLPFEH) quorum sensing peptide originating from the Bacillus cereus group; synthetic, purchased from GL Biochem]”, the “viability of BV-2 microglia cells” value (BV-2 microglia cells; 25 µM treatment, non-significant decrease) was 94.8%, the “toxic effects towards BV-2 microglia cells” value (BV-2 microglia cells; MTT, up to 25 µM) was “no significant toxic effects” and the T1/2 ([1]; mouse brain homogenate 0.6 mg/mL protein in KH buffer pH 7.4, peptide solution 0.1 mg/mL added, 0–60 min) was 522.9 min. The Metabolites ([1]; mouse brain homogenate, 0–60 min) was “DLPFEH, LPFEH”, the “metabolization in colon tissue” value ([1]; mouse colon homogenate 0.6 mg/mL protein in KH buffer pH 7.4, 37 °C, 0–60 min) was “no metabolization was observed” and the T1/2 ([1]; mouse faeces homogenate 0.6 mg/mL protein in KH buffer pH 7.4, peptide solution 0.1 mg/mL added, 0–60 min) was 89.7 min. The Metabolites ([1]; mouse faeces homogenate, 0–60 min) was “DLPFEH”, the T1/2 ([1]; mouse kidney homogenate 0.6 mg/mL protein in KH buffer pH 7.4, peptide solution 0.1 mg/mL added, 0–60 min) was 20 min and 19.8 min and the Metabolites ([1]; mouse kidney homogenate, 0–60 min) was “DLPFEH, LPFEH”. The T1/2 ([1]; mouse liver homogenate 0.6 mg/mL protein in KH buffer pH 7.4, peptide solution 0.1 mg/mL added, 0–60 min) was 285.7 min, the Metabolites ([1]; mouse liver homogenate, 0–60 min) was “DLPFEH, LPFEH” and the T1/2 ([1]; serum (500 µl + 400 µl KH buffer pH 7.4 + 100 µl peptide solution 0.1 mg/mL), shaking 750 rpm, aliquots 0, 5, 10, 30, 60 min) was 25 min and 24.8 min. For the same substance, the Metabolites ([1]; serum, 0–60 min) was “DLPFEH, LPFEH, LPFE, LPF, SDLPF, DLPF”, the “viability of SH-SY5Y cells with conditioned medium of treated BV-2 cells” value (SH-SY5Y neuroblast cells; BV-2 treated 20 h, conditioned medium on SH-SY5Y 24 h) was “significant decreased viability” and the “toxicity of direct treatment of SH-SY5Y cells” value (SH-SY5Y neuroblast cells; direct peptide treatment) was “no significant toxic effects”. The “efflux from brain back to the circulation” value [2] was “no efflux”.

— article PMC8140105 (Scientific Reports, 2021)
